Data from patent publication US9302999B2, “Substituted triazoles as herbicides” (E. I. DU PONT DE NEMOURS AND COMPANY, priority 2012, dated 2016).

Legend:
Format in all cases: in vivo
[1] = system: bluegrass (annual bluegrass, Poa annua); experiment: Test D pre-/postemergence: bluegrass
Procedure, shortened: (§1)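 Applied as a non-phytotoxic solvent formulation with surfactant, compounds were tested preemergence in silt loam and postemergence on seedlings 2 to 18 cm high in peat-vermiculite medium. Evaluation was visual, 0 meaning no effect and 100 complete control, at 14 to 21 days.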

[2] = system: oat, wild (wild oat, Avena fatua); experiment: Test D pre-/postemergence: oat, wild
Text: (§2) Seeds of plant species selected from bluegrass (annual bluegrass, Poa annua), blackgrass (Alopecurus myosuroides), canarygrass (Phalaris minor), chickweed (common chickweed, Stellaria media), galium (catchweed bedstraw, Galium aparine), bromegrass, downy (downy bromegrass, Bromus tectorum), field poppy (Papaver rhoeas), field violet (Viola arvensis), foxtail, green (green foxtail, Setaria viridis), deadnettle (henbit deadnettle, Lamium amplexicaule), ryegrass, Italian (Italian ryegrass, Lolium multiflorum), kochia (Kochia scoparia), lambsquarters (Chenopodium album), oilseed rape (Brassica napus), pigweed (Amaranthus retroflexus), Russian thistle (Salsola iberica), chamomile (scentless chamomile, Matricaria inodora), speedwell (bird's-eye speedwell, Veronica persica), barley, spring (spring barley, Hordeum vulgare), wheat, spring (spring wheat, Triticum aestivum), buckwheat, wild (wild buckwheat, Polygonum convolvulus), mustard, wild (wild mustard, Sinapis arvensis), oat, wild (wild oat, Avena fatua), radish, wild (wild radish, Raphanus raphanistrum), windgrass (Apera spica-venti), barley, winter (winter barley, Hordeum vulgare), and wheat, winter (winter wheat, Triticum aestivum) were planted into a silt loam soil and treated preemergence with test chemicals formulated in a non-phytotoxic solvent mixture which included a surfactant. At the same time, these same crop and weed species were planted in pots containing the planting medium comprising spaghnum peat moss, vermiculite, wetting agent and starter nutrients and treated with postemergence applications of the test chemicals formulated in the same manner. Plants ranged in height from 2 to 18 cm (1- to 4-leaf stage).
(§3) Treated plants and controls were maintained in a controlled growth environment for 14 to 21 days after which time all species were compared to controls and visually evaluated. Plant response ratings, summarized in Table D, are based on a scale of 0 to 100 where 0 is no effect and 100 is complete control. A dash (-) response means no test result.

[3] = system: blackgrass (Alopecurus myosuroides); experiment: Test D pre-/postemergence: blackgrass
Procedure, shortened: as §1

[4] = system: oilseed rape (Brassica napus); experiment: Test D pre-/postemergence: oilseed rape
Text: as §2, §3

[5] = system: mustard, wild (wild mustard, Sinapis arvensis); experiment: Test D pre-/postemergence: mustard, wild
Text: as §2, §3

[6] = system: foxtail, green (green foxtail, Setaria viridis); experiment: Test D pre-/postemergence: foxtail, green
Procedure, shortened: as §1

[7] = Postemergence, 31 g ai/ha, scale 0 to 100 (0 no effect, 100 complete control)
[8] = Postemergence, 62 g ai/ha, scale 0 to 100 (0 no effect, 100 complete control)
[9] = Postemergence, 125 g ai/ha, scale 0 to 100, 0 no effect, 100 complete control
[10] = Postemergence, 250 g ai/ha, scale 0 to 100 (0 no effect, 100 complete control)
[11] = Postemergence, 16 g ai/ha, scale 0 to 100
[12] = Preemergence, 16 g ai/ha, scale 0 to 100, 0 no effect, 100 complete control
[13] = Preemergence, 31 g ai/ha, scale 0 to 100, 0 no effect, 100 complete control
[14] = Preemergence, 62 g ai/ha, scale 0 to 100
[15] = Preemergence, 125 g ai/ha, scale 0 to 100
[16] = Preemergence, 250 g ai/ha, scale 0 to 100

Cc1nn(-c2ccc(C(F)(F)F)cc2)nc1Oc1ccnc(C(F)(F)F)c1 [Compound 120]
Plant response rating: Bluegrass [1, 7]: 10
Plant response rating: Bluegrass [1, 8]: 40
Plant response rating: Bluegrass [1, 9]: 70
Plant response rating: Bluegrass [1, 10]: 95
Plant response rating, Bluegrass [1, 11]: 10
Plant response rating, Bluegrass [1, 12]: 0
Plant response rating, Bluegrass [1, 13]: 100
Plant response rating, Bluegrass [1, 14]: 100
Plant response rating, Bluegrass [1, 15]: 100
Plant response rating, Bluegrass [1, 16]: 100
Plant response rating: Oat, Wild [2, 7]: 10
Plant response rating: Oat, Wild [2, 8]: 20
Plant response rating: Oat, Wild [2, 9]: 35
Plant response rating: Oat, Wild [2, 10]: 70
Plant response rating, Oat, Wild [2, 11]: 10
Plant response rating, Oat, Wild [2, 12]: 0
Plant response rating, Oat, Wild [2, 13]: 5
Plant response rating, Oat, Wild [2, 14]: 25
Plant response rating, Oat, Wild [2, 15]: 55
Plant response rating, Oat, Wild [2, 16]: 100
Plant response rating: Blackgrass [3, 7]: 10
Plant response rating: Blackgrass [3, 8]: 30
Plant response rating: Blackgrass [3, 9]: 75
Plant response rating: Blackgrass [3, 10]: 85
Plant response rating, Blackgrass [3, 11]: 5
Plant response rating, Blackgrass [3, 12]: 0
Plant response rating, Blackgrass [3, 13]: 80
Plant response rating, Blackgrass [3, 14]: 98
Plant response rating, Blackgrass [3, 15]: 100
Plant response rating, Blackgrass [3, 16]: 100
Plant response rating: Oilseed Rape [4, 7]: 50
Plant response rating: Oilseed Rape [4, 8]: 80
Plant response rating: Oilseed Rape [4, 9]: 90
Plant response rating: Oilseed Rape [4, 10]: 98
Plant response rating, Oilseed Rape [4, 11]: 20
Plant response rating, Oilseed Rape [4, 12]: 0
Plant response rating, Oilseed Rape [4, 13]: 10
Plant response rating, Oilseed Rape [4, 14]: 10
Plant response rating, Oilseed Rape [4, 15]: 30
Plant response rating, Oilseed Rape [4, 16]: 70
Plant response rating, Mustard, Wild [5, 12]: 0
Plant response rating, Mustard, Wild [5, 14]: 90
Plant response rating, Mustard, Wild [5, 15]: 100
Plant response rating, Mustard, Wild [5, 16]: 100
Plant response rating: Foxtail, Green [6, 7]: 15
Plant response rating: Foxtail, Green [6, 8]: 80
Plant response rating: Foxtail, Green [6, 9]: 95
Plant response rating: Foxtail, Green [6, 10]: 100
Plant response rating, Foxtail, Green [6, 11]: 5
Plant response rating, Foxtail, Green [6, 12]: 70
Plant response rating, Foxtail, Green [6, 13]: 100
Plant response rating, Foxtail, Green [6, 14]: 100
Plant response rating, Foxtail, Green [6, 15]: 100
Plant response rating, Foxtail, Green [6, 16]: 100

Cc1nn(-c2ccc(C(F)(F)F)cn2)nc1Cc1cccc(C(F)(F)F)c1 [Compound 106]
Plant response rating: Bluegrass [1, 7]: 10
Plant response rating: Bluegrass [1, 8]: 10
Plant response rating: Bluegrass [1, 9]: 15
Plant response rating: Bluegrass [1, 10]: 30
Plant response rating, Bluegrass [1, 11]: 10
Plant response rating, Bluegrass [1, 14]: 0
Plant response rating, Bluegrass [1, 15]: 0
Plant response rating, Bluegrass [1, 16]: 0
Plant response rating: Oat, Wild [2, 7]: 5
Plant response rating: Oat, Wild [2, 8]: 5
Plant response rating: Oat, Wild [2, 9]: 5
Plant response rating: Oat, Wild [2, 10]: 20
Plant response rating, Oat, Wild [2, 11]: 0
Plant response rating, Oat, Wild [2, 13]: 0
Plant response rating, Oat, Wild [2, 14]: 0
Plant response rating, Oat, Wild [2, 15]: 10
Plant response rating, Oat, Wild [2, 16]: 10
Plant response rating: Blackgrass [3, 7]: 10
Plant response rating: Blackgrass [3, 8]: 10
Plant response rating: Blackgrass [3, 9]: 20
Plant response rating: Blackgrass [3, 10]: 30
Plant response rating, Blackgrass [3, 11]: 5
Plant response rating, Blackgrass [3, 13]: 0
Plant response rating, Blackgrass [3, 14]: 0
Plant response rating, Blackgrass [3, 15]: 0
Plant response rating, Blackgrass [3, 16]: 0
Plant response rating: Oilseed Rape [4, 7]: 10
Plant response rating: Oilseed Rape [4, 8]: 10
Plant response rating: Oilseed Rape [4, 9]: 80
Plant response rating: Oilseed Rape [4, 10]: 95
Plant response rating, Oilseed Rape [4, 11]: 10
Plant response rating, Oilseed Rape [4, 13]: 10
Plant response rating, Oilseed Rape [4, 14]: 10
Plant response rating, Oilseed Rape [4, 15]: 10
Plant response rating, Oilseed Rape [4, 16]: 20
Plant response rating: Mustard, Wild [5, 7]: 80
Plant response rating: Mustard, Wild [5, 8]: 80
Plant response rating: Mustard, Wild [5, 9]: 90
Plant response rating: Mustard, Wild [5, 10]: 100
Plant response rating, Mustard, Wild [5, 11]: 20
Plant response rating, Mustard, Wild [5, 13]: 20
Plant response rating, Mustard, Wild [5, 14]: 50
Plant response rating, Mustard, Wild [5, 15]: 50
Plant response rating, Mustard, Wild [5, 16]: 60
Plant response rating: Foxtail, Green [6, 7]: 10
Plant response rating: Foxtail, Green [6, 8]: 20
Plant response rating: Foxtail, Green [6, 9]: 30
Plant response rating: Foxtail, Green [6, 10]: 40
Plant response rating, Foxtail, Green [6, 11]: 0
Plant response rating, Foxtail, Green [6, 13]: 0
Plant response rating, Foxtail, Green [6, 14]: 0
Plant response rating, Foxtail, Green [6, 15]: 0
Plant response rating, Foxtail, Green [6, 16]: 100
